# Reference: ChEMBL document CHEMBL1833947, “Synthesis and biological investigation of potential atypical antipsychotics with a tropane core. Part 1” (Eur J Med Chem, 2011)
# Calls of active or inactive are those of the source. No cut-off for these calls is given here.
# Legend:
# Mus musculus [1] = experiment: Anxiolytic-like activity in mouse assessed as number of punished crossing at 5 mg/kg, ip after 30 mins by four-plate test (reference value: 1514 +/- 73 crossings); format: functional; conditions: route intraperitoneal
# Mus musculus [2] = experiment: Antipsychotic activity in mouse assessed as reversal of DOI-induced head twitches at 5 mg/kg, ip administered 30 mins before DOI challenge; format: functional; conditions: route intraperitoneal
# Mus musculus [3] = experiment: Antidepressant-like activity in Swiss albino mouse assessed as immobilization time at 5 mg/kg, ip after 30 mins by forced swim test; format: functional, organism-based; design: dose 5 mg/kg
# Rattus norvegicus [4] = experiment: Antipsychotic activity in 8-OH-DPAT-stimulated rat assessed as lower lip retractions at 10 mg/kg, iv administered 45 mins before 8-OH-DPAT challenge measured after 15 to 45 mins (reference value: 2.9 retractions); format: functional
# Mus musculus [5] = experiment: Antipsychotic activity in mouse assessed as reversal of DOI-induced head twitches at 20 mg/kg, ip administered 30 mins before DOI challenge; format: functional; conditions: route intraperitoneal
# Rattus norvegicus [6] = experiment: Antipsychotic activity in 8-OH-DPAT-stimulated rat assessed as lower lip retractions at 5 mg/kg, iv administered 45 mins before 8-OH-DPAT challenge measured after 15 to 45 mins (reference value: 2.9 retractions); format: functional
# Mus musculus [7] = species: Mus musculus; conditions: Swiss albino, 2.5 mg/kg
# Description: Hypothermic effect in Swiss albino mouse assessed as change in body temperature at 2.5 mg/kg, ip measured after 60 mins
# Mus musculus [8] = species: Mus musculus; conditions: Swiss albino, 5 mg/kg
# Description: Hypothermic effect in Swiss albino mouse assessed as change in body temperature at 5 mg/kg, ip measured after 30 mins in presence of 0.1 mg/kg, sc 5-HT1A antagonist WAY 100635
# Rattus norvegicus [9] = experiment: Induction of 5HT1A receptor in rat assesses as lower lip retractions at 20 mg/kg, iv after 15 mins (reference value: 0.1 +/- 0.1 retractions); format: functional
# [10] = biological target: T1, 5-hydroxytryptamine receptor 1A (Rattus norvegicus, UniProt P19327); experiment: Displacement of [3H]8OH-DPAT from 5HT1A in rat brain cerebral cortex after 15 mins by scintillation counting; format: tissue-based
# T1 sequence (P19327 whole entry): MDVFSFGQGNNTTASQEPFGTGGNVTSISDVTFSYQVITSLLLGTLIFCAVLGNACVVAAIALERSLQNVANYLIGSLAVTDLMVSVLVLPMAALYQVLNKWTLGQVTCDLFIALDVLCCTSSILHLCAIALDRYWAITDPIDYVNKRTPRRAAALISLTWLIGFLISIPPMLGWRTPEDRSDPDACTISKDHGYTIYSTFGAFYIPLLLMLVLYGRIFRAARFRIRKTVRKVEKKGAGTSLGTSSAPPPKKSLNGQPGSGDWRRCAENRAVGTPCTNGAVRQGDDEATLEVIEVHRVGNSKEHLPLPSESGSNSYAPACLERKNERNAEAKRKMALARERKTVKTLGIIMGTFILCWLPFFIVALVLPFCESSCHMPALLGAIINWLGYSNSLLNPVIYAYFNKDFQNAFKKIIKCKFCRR
# Mus musculus [11] = species: Mus musculus; conditions: Swiss albino, 5 mg/kg; remark: listed apart in the source
# Description: Hypothermic effect in Swiss albino mouse assessed as change in body temperature at 5 mg/kg, ip measured after 30 mins
# [12] = biological target: 5-hydroxytryptamine receptor 2A (Rattus norvegicus, UniProt P14842); experiment: Displacement of [3H]ketanserin from 5HT2A in rat brain cerebral cortex after 20 mins by scintillation counting; format: tissue-based
# Sequence of 5-hydroxytryptamine receptor 2A (P14842 whole entry): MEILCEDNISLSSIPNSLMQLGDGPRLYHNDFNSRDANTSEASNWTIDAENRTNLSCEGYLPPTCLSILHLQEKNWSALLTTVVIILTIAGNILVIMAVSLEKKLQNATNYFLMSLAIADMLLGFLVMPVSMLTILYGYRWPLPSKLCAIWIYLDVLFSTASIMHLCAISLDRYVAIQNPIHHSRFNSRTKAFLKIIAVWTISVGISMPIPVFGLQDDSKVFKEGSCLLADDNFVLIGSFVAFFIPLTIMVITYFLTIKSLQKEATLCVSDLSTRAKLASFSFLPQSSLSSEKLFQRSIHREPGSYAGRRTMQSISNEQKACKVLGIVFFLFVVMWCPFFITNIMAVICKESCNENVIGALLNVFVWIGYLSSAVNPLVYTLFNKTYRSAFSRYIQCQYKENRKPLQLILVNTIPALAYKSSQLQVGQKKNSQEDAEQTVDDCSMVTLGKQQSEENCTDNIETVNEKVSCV
# Mus musculus [13] = species: Mus musculus; conditions: Swiss albino, 2.5 mg/kg; remark: listed apart in the source
# Description: Hypothermic effect in Swiss albino mouse assessed as change in body temperature at 2.5 mg/kg, ip measured after 30 mins
# Mus musculus [14] = species: Mus musculus; conditions: Swiss albino, 5 mg/kg; remark: listed apart in the source
# Description: Hypothermic effect in Swiss albino mouse assessed as change in body temperature at 5 mg/kg, ip measured after 120 mins
# Mus musculus [15] = species: Mus musculus; conditions: Swiss albino, 5 mg/kg; remark: listed apart in the source
# Description: Hypothermic effect in Swiss albino mouse assessed as change in body temperature at 5 mg/kg, ip measured after 90 mins
# Mus musculus [16] = species: Mus musculus; conditions: Swiss albino, 5 mg/kg; remark: listed apart in the source
# Description: Hypothermic effect in Swiss albino mouse assessed as change in body temperature at 5 mg/kg, ip measured after 60 mins
# Rattus norvegicus [17] = experiment: Antipsychotic activity in 8-OH-DPAT-stimulated rat assessed as lower lip retractions at 20 mg/kg, iv administered 45 mins before 8-OH-DPAT challenge measured after 15 to 45 mins (reference value: 2.9 retractions); format: functional
# Mus musculus [18] = experiment: Antipsychotic activity in mouse assessed as reversal of DOI-induced head twitches at 10 mg/kg, ip administered 30 mins before DOI challenge; format: functional; conditions: route intraperitoneal
# Rattus norvegicus [19] = experiment: Induction of 5HT1A receptor in rat assesses as lower lip retractions at 5 mg/kg, iv after 15 mins (reference value: 0.1 +/- 0.1 retractions); format: functional
# Mus musculus [20] = species: Mus musculus; conditions: Swiss albino, 2.5 mg/kg; remark: listed apart in the source
# Description: Hypothermic effect in Swiss albino mouse assessed as change in body temperature at 2.5 mg/kg, ip measured after 120 mins
# Mus musculus [21] = experiment: Anxiolytic-like activity in mouse assessed as number of punished crossing at 5 mg/kg, ip after 6 mins by four-plate test (reference value: 1514 +/- 73 crossings); format: functional; conditions: route intraperitoneal
# Mus musculus [22] = experiment: Antidepressant-like activity in Swiss albino mouse assessed as immobilization time at 2.5 mg/kg, ip after 30 mins by forced swim test; format: functional, organism-based; design: dose 2.5 mg/kg
# Mus musculus [23] = species: Mus musculus; conditions: Swiss albino, 2.5 mg/kg; remark: listed apart in the source
# Description: Hypothermic effect in Swiss albino mouse assessed as change in body temperature at 2.5 mg/kg, ip measured after 90 mins
# Mus musculus [24] = species: Mus musculus; conditions: Swiss albino, 5 mg/kg; remark: listed apart in the source
# Description: Hypothermic effect in Swiss albino mouse assessed as change in body temperature at 5 mg/kg, ip measured after 60 mins in presence of 0.1 mg/kg, sc 5-HT1A antagonist WAY 100635
# Rattus norvegicus [25] = experiment: Induction of 5HT1A receptor in rat assesses as lower lip retractions at 10 mg/kg, iv after 15 mins (reference value: 0.1 +/- 0.1 retractions); format: functional
# D(2) dopamine receptor = D(2) dopamine receptor (Rattus norvegicus, UniProt P61169); experiment: Displacement of [3H]spiperone from dopamine D2 receptor in rat striatum tissue after 20 mins by scintillation counting; format: tissue-based
# Sequence of D(2) dopamine receptor (P61169 whole entry): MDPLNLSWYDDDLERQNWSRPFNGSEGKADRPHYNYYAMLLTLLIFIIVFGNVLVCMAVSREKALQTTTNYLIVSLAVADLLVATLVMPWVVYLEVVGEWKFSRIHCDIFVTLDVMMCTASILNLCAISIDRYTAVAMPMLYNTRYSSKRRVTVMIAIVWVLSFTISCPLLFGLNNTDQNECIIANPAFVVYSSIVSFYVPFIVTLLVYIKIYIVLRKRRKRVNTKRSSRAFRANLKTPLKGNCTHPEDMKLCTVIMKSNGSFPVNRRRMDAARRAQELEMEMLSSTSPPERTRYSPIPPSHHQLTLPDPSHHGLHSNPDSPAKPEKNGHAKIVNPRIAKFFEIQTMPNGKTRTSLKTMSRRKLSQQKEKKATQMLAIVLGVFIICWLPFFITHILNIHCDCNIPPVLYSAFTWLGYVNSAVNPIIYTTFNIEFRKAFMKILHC
# Mus musculus [26] = species: Mus musculus; conditions: Swiss albino, 10 mg/kg
# Description: Hypothermic effect in Swiss albino mouse assessed as change in body temperature at 10 mg/kg, ip measured after 120 mins
# Mus musculus [27] = species: Mus musculus; conditions: Swiss albino, 20 mg/kg
# Description: Hypothermic effect in Swiss albino mouse assessed as change in body temperature at 20 mg/kg, ip measured after 60 mins
# Mus musculus [28] = species: Mus musculus; conditions: Swiss albino, 20 mg/kg; remark: listed apart in the source
# Description: Hypothermic effect in Swiss albino mouse assessed as change in body temperature at 20 mg/kg, ip measured after 30 mins
# Mus musculus [29] = species: Mus musculus; conditions: Swiss albino, 10 mg/kg; remark: listed apart in the source
# Description: Hypothermic effect in Swiss albino mouse assessed as change in body temperature at 10 mg/kg, ip measured after 90 mins
# Mus musculus [30] = species: Mus musculus; conditions: Swiss albino, 20 mg/kg; remark: listed apart in the source
# Description: Hypothermic effect in Swiss albino mouse assessed as change in body temperature at 20 mg/kg, ip measured after 90 mins
# Mus musculus [31] = species: Mus musculus; conditions: Swiss albino, 20 mg/kg; remark: listed apart in the source
# Description: Hypothermic effect in Swiss albino mouse assessed as change in body temperature at 20 mg/kg, ip measured after 15 mins in presence of 5 mg/kg, sc 8-OH-DPAT
# Mus musculus [32] = species: Mus musculus; conditions: Swiss albino, 10 mg/kg; remark: listed apart in the source
# Description: Hypothermic effect in Swiss albino mouse assessed as change in body temperature at 10 mg/kg, ip measured after 60 mins
# Mus musculus [33] = species: Mus musculus; conditions: Swiss albino, 20 mg/kg; remark: listed apart in the source
# Description: Hypothermic effect in Swiss albino mouse assessed as change in body temperature at 20 mg/kg, ip measured after 45 mins in presence of 5 mg/kg, sc 8-OH-DPAT
# Mus musculus [34] = species: Mus musculus; conditions: Swiss albino, 10 mg/kg; remark: listed apart in the source
# Description: Hypothermic effect in Swiss albino mouse assessed as change in body temperature at 10 mg/kg, ip measured after 30 mins
# Mus musculus [35] = species: Mus musculus; conditions: Swiss albino, 20 mg/kg; remark: listed apart in the source
# Description: Hypothermic effect in Swiss albino mouse assessed as change in body temperature at 20 mg/kg, ip measured after 60 mins in presence of 5 mg/kg, sc 8-OH-DPAT
# Mus musculus [36] = species: Mus musculus; conditions: Swiss albino, 20 mg/kg; remark: listed apart in the source
# Description: Hypothermic effect in Swiss albino mouse assessed as change in body temperature at 20 mg/kg, ip measured after 30 mins in presence of 5 mg/kg, sc 8-OH-DPAT
# Mus musculus [37] = species: Mus musculus; conditions: Swiss albino, 20 mg/kg; remark: listed apart in the source
# Description: Hypothermic effect in Swiss albino mouse assessed as change in body temperature at 20 mg/kg, ip measured after 120 mins
# Mus musculus [38] = experiment: Antipsychotic activity in mouse assessed as reversal of apomorphine-induced mesh climbing response at 50 mg/kg, ip administered 10 mins prior to apomorphine challenge measured after 30 mins; format: functional, organism-based; design: dose 50 mg/kg
# Mus musculus [39] = experiment: Antipsychotic activity in mouse assessed as reversal of apomorphine-induced mesh climbing response at 50 mg/kg, ip administered 20 mins prior to apomorphine challenge measured after 40 mins
# Rattus norvegicus [40] = experiment: Induction of 5HT1A receptor in rat assesses as lower lip retractions at 0.1 mg/kg, iv after 15 mins (reference value: 0.1 +/- 0.1 retractions); format: functional
# Rattus norvegicus [41] = experiment: Antipsychotic activity in 8-OH-DPAT-stimulated rat assessed as lower lip retractions at 0.1 mg/kg, iv administered 45 mins before 8-OH-DPAT challenge measured after 15 to 45 mins (reference value: 2.9 retractions); format: functional
smiles,measurement,setting,value
"O=C(N[C@@H]1CC2CC[C@H](C1)N2Cc1ccccc1)c1ccc2ccccc2c1 (single isomer, unassigned)",Activity,Mus musculus [1],321
same,Activity,Mus musculus [2],81%
same,Activity,Mus musculus [3],inactive
same,Activity,Rattus norvegicus [4],2.6
same,Activity,Mus musculus [5],100%
same,Activity,Rattus norvegicus [6],2.7
same,deltaT,Mus musculus [7],0.1 °C
same,deltaT,Mus musculus [8],-1.3 °C
same,Activity,Rattus norvegicus [9],0.1
same,Ki,[10],0.304 µM
same,deltaT,Mus musculus [11],-1.5 °C
same,Ki,[12],2.5 nM
same,deltaT,Mus musculus [13],-0.2 °C
same,deltaT,Mus musculus [14],-0.5 °C
same,deltaT,Mus musculus [15],-0.6 °C
same,deltaT,Mus musculus [16],-0.9 °C
same,Activity,Rattus norvegicus [17],2.6
same,Activity,Mus musculus [18],95%
same,Activity,Rattus norvegicus [19],0.1
same,deltaT,Mus musculus [20],0 °C
same,Activity,Mus musculus [21],15
same,Activity,Mus musculus [22],inactive
same,deltaT,Mus musculus [23],-0.1 °C
same,deltaT,Mus musculus [24],-0.9 °C
same,Activity,Rattus norvegicus [25],0.2
same,Ki,D(2) dopamine receptor,82.4 nM
"COc1cc(N)c(Cl)cc1C(=O)N[C@@H]1CC2CC[C@H](C1)N2CC1CCCO1 (single isomer, unassigned)",deltaT,Mus musculus [26],0 °C
same,Activity,Mus musculus [2],63%
same,Activity,Rattus norvegicus [4],2.4
same,deltaT,Mus musculus [27],-0.3 °C
same,Activity,Mus musculus [5],92%
same,Activity,Rattus norvegicus [9],0.5
same,Ki,[10],5.7 µM
same,deltaT,Mus musculus [11],-0.1 °C
same,Ki,[12],6.2 nM
same,deltaT,Mus musculus [28],-0.8 °C
same,deltaT,Mus musculus [14],0 °C
same,deltaT,Mus musculus [15],0 °C
same,deltaT,Mus musculus [16],-0.1 °C
same,deltaT,Mus musculus [29],-0.1 °C
same,Activity,Rattus norvegicus [17],2.4
same,deltaT,Mus musculus [30],-0.1 °C
same,deltaT,Mus musculus [31],-2.9 °C
same,deltaT,Mus musculus [32],0 °C
same,deltaT,Mus musculus [33],-1.6 °C
same,deltaT,Mus musculus [34],-0.2 °C
same,Activity,Rattus norvegicus [25],0.3
same,deltaT,Mus musculus [35],-0.6 °C
same,deltaT,Mus musculus [36],-2.9 °C
same,deltaT,Mus musculus [37],-0.1 °C
same,Activity,Mus musculus [38],Active
same,Ki,D(2) dopamine receptor,103 nM
same,Activity,Mus musculus [39],Active
COc1ccccc1N1CCN(CCN(C(=O)C2CCCCC2)c2ccccn2)CC1.Cl.Cl.Cl,Activity,Rattus norvegicus [40],0
same,Activity,Rattus norvegicus [41],0.3
